Reference: patent US11179408B2, “Use of cyanoglucosides and pharmaceutical formulations thereof in the treatment of diabetes” (UNIVERSIDADE ESTADUAL PAULISTA JULIO DE MESQUITA FILHO, priority 2016, dated 2021)

Columns and labels:
[1] = test system: normal rats; conditions: oral, 200 mg/kg, 1 h after treatment; cited from earlier work
[2] = test system: alloxan-induced diabetic rats; conditions: oral, 50, 100 and 200 mg/kg; cited from earlier work
[3] = test system: diabetic mice; test: Intraperitoneal glucose tolerance test (IPGTT) in diabetic mice; assay type: in vivo; conditions: streptozotocin diabetic mice; for IPGTT area under the curve (AUC): compared to CTLSAL group
Description: The leaves extract obtained under Example 1 was tested at a concentration of 400 mg/kg. The mice were treated daily for days by gavage with the extract as well as metformin (300 mg/kg), and at the end of treatment they underwent an […] glucose tolerance test.
The intraperitoneal glucose tolerance assay (IPGTT) was used to evaluate the glucose disappearance from the plasma of 8-10 hours fasted mice at time 0 and after glucose intraperitoneal injection (2 g/kg) in 15, 30, 60, 90 and 120 min as represented on FIG. 2A where curves represent: CTLSAL: normoglycemic mice treated orally with saline vehicle (0.9% NaCl), STZSAL: diabetic mice treated orally with saline vehicle (0.9% NaCl), STZMET: diabetic mice treated orally with metformin at the concentration of 300 mg/kg, STZEXT: diabetic mice treated orally with 70% EtOH extract at a concentration of 400 mg/kg. […] Data expressed as mean±standard error of the mean. ANOVA followed by Tukey post test. a vs. CTLSAL, b vs. STZSAL, c vs. STZMET, N=8-12, p<0.05.
(§1) The major compound of the cyanoglicoside fraction, BH-21 was tested at a concentration of 10 mg/kg in diabetic mice by gavage daily for 28 days. Male Swiss mice were divided into two groups and treated daily for 28 days by gavage: a control group (CTLSAL) that received saline vehicle (0.9% NaCl) and a group called streptozotocin, previously treated with this drug (150 mg/kg). Animals with blood glucose higher than 250 mg/dl were included in the study and divided into three experimental groups. One group, named streptozotocin saline (STZSAL) received saline (0.9% NaCl); another group of animals treated with metformin (STZMET) at the dose of 300 mg/kg and a third group (LITHOS) received the compound BH-21 (lithospermoside), diluted in saline at a dose of 10 mg/kg body weight.

[4] = test system: diabetic mice; test: Fasting blood glucose in streptozotocin diabetic mice; assay type: in vivo, Male Swiss mice; conditions: for fasting blood glucose: streptozotocin diabetic mice, end of treatment, p<0.05
Description: The hydroalcoholic extract as obtained in Example 1 and the major compound lithospermoside (BH-21) as obtained in Example 2 were evaluated for their pharmacological activity in reducing fasting blood glucose and improving glucose tolerance in diabetic animals as described below.
as §1

[5] = 10 mg/kg by gavage daily for 28 days

**Q.** What does the source list for `C[C@@H]1O[C@@H](Oc2cc(O)c3c(=O)c(O[C@@H]4O[C@@H](C)[C@H](O)[C@@H](O)[C@H]4O)c(-c4ccc(O)cc4)oc3c2)[C@H](O)[C@H](O)[C@H]1O` [kaempferitrin, kaempferol-3,7-O—(R)-dirhamnoside]?
**A.** blood glucose lowering [1]: blood glucose lowering was observed only with the higher dose; hypoglycemic effect [2]: evident at all doses tested

**Q.** Which “IPGTT area under the curve (AUC)” value [3, 5] does the source give for `N#C/C=C1/C=C[C@@H](O)[C@H](O)[C@H]1OC1OC(CO)C(O)C(O)C1O` (stereo in doubt) [BH-21, (2Z)-2-[(4R,5S,6S)-4,5-dihydroxy-6-[[(2S,3S,4R,5R,6S)-3,4,5-trihydroxy-6-(hydroxymethyl)-2-oxanyl]oxy]-1-cyclohex-2-enylidene]acetonitrile] here?
**A.** Its value is “no significant difference”.

**Q.** And the “IPGTT blood glucose values after intraperitoneal administration of glucose” value ([3]; 10 mg/kg daily for 28 days, vs metformin 300 mg/kg group, p<0.05)?
**A.** Its value is “significantly lower than the STZMET group at all times”.

**Q.** What about the “in vivo hypoglycemic activity relative to metformin” value ([4]; higher than metformin) of the same compound?
**A.** The value was “about 30 times”.

**Q.** What about the fasting blood glucose [4, 5] of the same compound?
**A.** Its fasting blood glucose is “significantly lower than in STZSAL and STZMET groups but greater than the CTLSAL group”.

**Q.** For `CN(C)C(=N)N=C(N)N` [metformin], which “IPGTT area under the curve (AUC)” value ([3]; metformin 300 mg/kg daily for 28 days) is on record?
**A.** Its value is “no significant difference”.

**Q.** And the fasting blood glucose ([4]; metformin 300 mg/kg daily for 28 days, vs CTLSAL)?
**A.** The fasting blood glucose was “significantly increased”.
